The values that follow come from PubChem BioAssay (NCI).

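Cultured in 96-well plates, cells were exposed to test compound for 48 hours across five concentrations. TGI marks complete inhibition of growth.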

Some test systems named below: RXF 393 renal; MDA-MB-231 breast; COLO 205 colon; SK-MEL-5 melanoma; LOX IMVI melanoma; IGROV1 ovarian; SNB-75 CNS; SK-MEL-28 melanoma; SF-539 CNS; MDA-N.
Assay in all cases: NCI tumour cell line growth inhibition, 48 h

With `CCc1c(-c2ccc(OC)cc2)oc(OC)c(C)c1=O`, the TGI with RXF 393 renal, in the test with MDA-MB-231 breast, with COLO 205 colon, in the test on SK-MEL-5 melanoma, in the test on LOX IMVI melanoma and in the test with IGROV1 ovarian was over 100 µM throughout. Moreover, the TGI in the test with SNB-75 CNS, in the test with SK-MEL-28 melanoma and in the test on SF-539 CNS was over 100 µM each time.

For `CC(=O)OC1[C@H](OC(C)=O)C2=C(C)[C@@H](OC(C)=O)C[C@@]2(C(C)(C)O)[C@@H](OC(C)=O)[C@H]2[C@@]1(C)[C@@H](OC(C)=O)CC(OC(C)=O)[C@]21CO1` (stereo not given in full), the TGI in the test on RXF 393 renal, in the test on COLO 205 colon, with SK-MEL-5 melanoma, in the test with LOX IMVI melanoma, in the test with MDA-N and in the test on SNB-75 CNS was over 100 µM throughout. Further, the TGI in the test with SK-MEL-28 melanoma and with SF-539 CNS was over 100 µM throughout.

Take `O=c1c(Cc2ccc(Cl)cc2)nnc2sc(-c3ccc(-c4ccc(Cl)cc4Cl)o3)nn12`: the TGI with RXF 393 renal, in the test with MDA-MB-231 breast, in the test with COLO 205 colon, with SK-MEL-5 melanoma, in the test on LOX IMVI melanoma and in the test on IGROV1 ovarian was over 100 µM in each case. For the same compound, the TGI in the test on MDA-N, in the test with SK-MEL-28 melanoma and in the test on SF-539 CNS was over 100 µM each time.

`COc1nc2ccc(COc3ccc(C(=O)O)cc3)cc2nc1OC`: the TGI in the test on MDA-MB-231 breast, in the test on COLO 205 colon, with SK-MEL-5 melanoma, with LOX IMVI melanoma, in the test on IGROV1 ovarian and with MDA-N was over 100 µM throughout. For the same compound, the TGI in the test on SNB-75 CNS was 53.4 µM; with SK-MEL-28 melanoma it was over 100 µM; in the test with SF-539 CNS, over 100 µM.

For `Cc1nc2cc(Nc3ccccc3C(=O)O)ccc2s1`, the TGI in the test with RXF 393 renal, in the test on COLO 205 colon, with SK-MEL-5 melanoma, with LOX IMVI melanoma, in the test on IGROV1 ovarian and in the test with SNB-75 CNS was over 100 µM throughout. The TGI in the test with SK-MEL-28 melanoma and in the test on SF-539 CNS was over 100 µM each time.

`O=C(Cn1c(C(=O)c2ccccc2)nc2ccccc21)c1ccccc1`: the TGI with RXF 393 renal is over 100 µM; in the test on MDA-MB-231 breast it was over 100 µM; in the test with COLO 205 colon, over 100 µM; in the test with SK-MEL-5 melanoma, over 100 µM; in the test with LOX IMVI melanoma, over 100 µM; in the test on IGROV1 ovarian, over 31.6 µM. In addition, the TGI in the test on SNB-75 CNS, with SK-MEL-28 melanoma and in the test with SF-539 CNS was over 100 µM each time.

Take `CCn1c(CCl)nc2c1C(=O)c1ccccc1C2=O`: the TGI was 3.29 µM with RXF 393 renal; 2.84 µM in the test on SK-MEL-5 melanoma; 3.86 µM in the test with IGROV1 ovarian; 3.85 µM with MDA-N; 3.62 µM with SNB-75 CNS; 3.19 µM in the test on SK-MEL-28 melanoma. In the test with SF-539 CNS, this compound showed a TGI of 4.89 µM.

In the case of `C[C@H](CCC1SC1(C)C)C1CCC2(C)C3=C(CC[C@]12C)[C@@]1(C)CC[C@H](O)C(C)(C)C1CC3` (stereo not given in full), the TGI in the test with RXF 393 renal, in the test on COLO 205 colon, in the test on SK-MEL-5 melanoma, in the test with LOX IMVI melanoma, with IGROV1 ovarian and in the test with SNB-75 CNS was over 100 µM throughout. The compound also gave a TGI with SK-MEL-28 melanoma of over 100 µM.

As for `C#CCN(Cc1ccc2nc(-c3ccccc3)c(N)nc2c1)c1cc(OC)c(OC)c(OC)c1`, the TGI is 96.2 µM with RXF 393 renal; 42.8 µM with COLO 205 colon; 25.7 µM in the test with SK-MEL-5 melanoma; 59.3 µM in the test with LOX IMVI melanoma; over 100 µM in the test with IGROV1 ovarian; 83.5 µM in the test on SNB-75 CNS. In addition, the TGI in the test on SK-MEL-28 melanoma and with SF-539 CNS was over 100 µM in each case.

On to `O=C1CSC(c2ccc(Cl)cc2Cl)N1c1ccc(Oc2ccc(Cl)cc2)c(Cl)c1` (stereo not given), for which the TGI in the test on MDA-MB-231 breast was 45.2 µM; in the test with COLO 205 colon, 61 µM; with SK-MEL-5 melanoma it was 43.6 µM; in the test with LOX IMVI melanoma, 36.6 µM; with IGROV1 ovarian, over 100 µM; with MDA-N, 98 µM. Besides, the TGI was 60 µM with SNB-75 CNS, over 100 µM in the test with SK-MEL-28 melanoma and 86.7 µM in the test on SF-539 CNS.

Take `COc1cc(-c2c3c(cc4c2OCO4)[C@@H](Nc2ccc(-c4ccc(-c5ccc(N[C@@H]6c7cc8c(cc7C(c7cc(OC)c(O)c(OC)c7)[C@H]7C(=O)OC[C@H]67)OCO8)cc5)cc4)cc2)[C@H]2COC(=O)[C@@H]2C3)cc(OC)c1O` (stereo not given in full): the TGI is 6 µM in the test with MDA-MB-231 breast; 3.34 µM in the test with COLO 205 colon; 7.58 µM in the test on SK-MEL-5 melanoma; over 100 µM with LOX IMVI melanoma; 2.68 µM in the test with IGROV1 ovarian; 15.7 µM in the test on SK-MEL-28 melanoma.

Regarding `C(=Nc1ccc(-c2nc3ccccc3s2)cc1)c1ccc[nH]1`, the TGI in the test with RXF 393 renal was determined as 31.3 µM; in the test on COLO 205 colon it was 31.8 µM; in the test with SK-MEL-5 melanoma, 30.7 µM; in the test on LOX IMVI melanoma it was 33.3 µM; with IGROV1 ovarian, 40.6 µM; with MDA-N, 33.6 µM. Further, the TGI is 55.7 µM with SNB-75 CNS, 42.5 µM in the test on SK-MEL-28 melanoma and 37.3 µM with SF-539 CNS.

For the compound `O=C(O)/C=C/c1ccc2c(c1)CC1(Cc3ccccc3C1)C2`, the TGI with RXF 393 renal was over 100 µM; in the test on MDA-MB-231 breast, over 100 µM; in the test on COLO 205 colon it was 52.3 µM; in the test on SK-MEL-5 melanoma it was over 100 µM; with LOX IMVI melanoma, over 100 µM; in the test on IGROV1 ovarian it was over 100 µM. The TGI with MDA-N and with SF-539 CNS was over 100 µM in each case.

Regarding `Cc1cc2nc3c(C#N)c4c(c(-c5ccc(Cl)cc5)n3c2cc1C)CCC4`, the TGI is over 100 µM in the test on RXF 393 renal; 49.1 µM with MDA-MB-231 breast; 39.1 µM with COLO 205 colon; 40.3 µM with SK-MEL-5 melanoma; 90.6 µM with LOX IMVI melanoma; 36.2 µM with IGROV1 ovarian. Further, the TGI amounted to 88 µM with MDA-N, 50.3 µM with SK-MEL-28 melanoma and 78.9 µM in the test on SF-539 CNS.
